Data as given in patent publication US20100168146A1, “Composition Comprising (R)-Spiro[L-Azabicyclo[2.2.2]Octane-3,2'(3'H)-Furo[2,3-B]Pyridine (AZD0328) and its Use in the Treatment of Alzheimer's Disease, ADHD or Cognitive Dysfunction” (priority 2008, published 2010).
“And” between values parts separate entries of the source, which are not always exact repeats. Equal values may be shown once. “Also recorded” adds a separate entry of the source. Read-outs that look alike come from different tables or passages of the source.

Experiments:
rats [1] = test: Spontaneous locomotor activity; assay type: in vivo; conditions: Wistar rat, oral gavage, 90 min session
Procedure: AZD0328 was investigated for possible effects on spontaneous locomotor activity in rats (n=6/group)(Table 3). Animals were individually placed in locomotor activity boxes for a 90 min test session. Movements within the box were measured by infrared beams, and activity was assessed as ambulatory counts, stereotypic counts, vertical counts, and resting time.

rats [2] = test: Nicotine drug discrimination; conditions: Wistar, rat, in vivo, sc
Procedure: AZD0328 was tested for its potential to produce nicotine-like stimulus effects after subcutaneous administration in a drug-discrimination procedure (Table 3).

dogs = test: Maximum tolerated dose and 7 days oral toxicity; assay type: in vivo; conditions: dog
Procedure: Single doses of 4.5 to 17 mg/kg were administrated to test AZD0328 to 2 male and 2 female dogs. […] Signs of nausea and at the higher doses vomiting was seen. In the 7 days repeated dose study 2 male and 2 female dogs were given 35 mg/kg per day. However, vomiting was the major clinical sign recorded during the study.

[3] = Cardiovascular/respiratory telemetry and whole body plethysmography; assay type: in vivo, rat; conditions: plasma; rat, oral, whole-body plethysmography; read-out: NOAEL on ventilatory function / respiration, total Cmax
Procedure: (§1) Effects of single oral doses of AZD0328 on mean, systolic and diastolic arterial blood pressures, heart rate, body temperature, locomotor activity and respiratory parameters were evaluated in rats by combining whole body plethysmography with telemetry (Table 3). […] The degree of hypertension, however, was similar at the 3 highest doses, which partly can be explained by the high individual variation in plasma exposure at each dose level. The effect on heart rate was, on the other hand, dose-related.
(§2) Effects of AZD0328 on respiratory function were evaluated in the combined cardiovascular/respiratory study in rats (Table 3). Respiratory rate, tidal volume, inspiratory and expiratory times, and peak inspiratory and expiratory flows were measured […].

rats [4] = test: as above; assay type: in vivo, rat
Procedure: as §1, §2

[5] = Single oral dose PK in healthy human volunteers (Table A); assay type: in vivo
Procedure: Total oral doses of AZD0328 in the range 0.025-0.68 mg produced mean plasma concentrations of 0.6-15 nM, consistent with the range of plasma concentrations found to be associated with improved performance in the spatial delayed response test in monkeys. Total oral doses of AZD0328 in the range 0.005-2 mg produced mean plasma concentrations of 0.17-43.9 nM, within the range of plasma concentrations found to be associated with improved performance in rodent models.

[6] = [14C]-AZD0328 QWBA / mass balance; assay type: in vivo, rat
Procedure: In the mass balance study conducted in fed rats, a Tmax of 0.5 h to 1 h was observed following single and multiple oral doses (solution). The bioavailability of AZD0328 (total radioactivity) in this study was >90%. […] Generally speaking, the elimination was complete within the 24-hour interval at the dose levels tested.
AZD0328 is a low protein binding molecule across species including human (<15%) across the concentration range 21.6 to 21,630 ng/mL (0.1 to 100 μM). In most species, the binding was concentration and gender independent. […] [^14C]-AZD0328-derived radioactivity was rapidly distributed to the organs and tissues with high levels of radioactivity associated with the contents of the GI tract and the major excretion organs, including kidney and liver. The radioactivity declined rapidly and by 168 h postdose radioactivity levels were not detectable in most tissues, with the exception of a few ocular tissues and nasal turbinates. […] Notable association of [^14C]-AZD0328-related radioactivity with the melanin-containing tissues was observed, with measurable radioactivity still present in the ocular tissue at 216 h postdate. [^14C]-AZD0328-derived radioactivity crossed the placenta.
Pharmacokinetics and mass balance of [^14C]-AZD0328 were investigated in rats. The excretion of [^14C]-AZD0328-derived radioactivity in rats was mainly through the kidney. Over the course of the study, radioactivity recovered in urine and feces accounted for approximately 85% and 8%, respectively.

rhesus monkeys = test: Intravenous self-administration (reinforcing potential)
From the text: The compound was compared with cocaine and saline for its ability to maintain intravenous self-administration in the monkeys under a lever-press induced drug infusion schedule.

[7] = PK/TK single dose studies; assay type: in vivo; conditions: rhesus monkey, plasma
Procedure: Pharmacokinetic studies in rats and monkeys were used to estimate the plasma concentrations associated with doses at which AZD0328 improved cognitive performance in these species. For example, in rhesus monkeys, two studies were conducted to determine the pharmacokinetic profile of AZD0328 after administration of 0.048 and 1.7 mg per kg AZD0328. […] We thus estimated the peak plasma concentrations in monkeys that received AZD0328 at 0.00048-0.016 mg per kg to be 0.6-18 nM. Similar studies and calculations in rats, when extended to mice, led us to estimate plasma concentrations at 0.001-0.1 mg per kg body weight to be 0.29-100 nM in these species.
This section provides a summary of the pharmacokinetic and metabolism properties of AZD0328 derived from in vivo studies. […] The derived PK/TK parameters from these studies are presented in Table 4 for single dose studies (DMR4, 0619LR, 20030191PCR, DM016, DMB10, DMW12, 50190, 0190DD and 03.330/1), and are presented in Table 5 multiple dose PK/TK studies (DMR4, 0612AR, DMB15, 50190, 0190DD and 0295AD).

[8] = single oral 0.025 mg, geometric mean
[9] = single oral 0.075 mg, geometric mean
[10] = single oral 0.23 mg, geometric mean
[11] = single oral 0.68 mg, geometric mean
[12] = single oral 1.35 mg, geometric mean
[13] = single oral 2 mg, geometric mean

SMILES: c1cnc2c(c1)C[C@@]1(CN3CCC1CC3)O2 [AZD0328, (R)-Spiro[1-azabicyclo[2.2.2]octane-3,2′(3′H)-furo[2,3-b]pyridine]]
- Dose without effect on locomotor activity (rats [1]): up to 129.8 mg/kg
- Dose up to which nicotine-like stimulus properties were lacking (rats [2]): properties at doses up to 5.4 mg/kg
- Dose with slight QT prolongation (ECG) (dogs): ≥ 8.6 mg/kg
- Cmax [3]: ≤ 31.2 µM
- Dose with no CV effect (rats [4]; Wistar rat, oral gavage): 1.1 mg/kg
- Increase in blood pressure and heart rate (rats [4]; conscious telemetered rat, oral): > 10%
- Locomotor activity or body temperature (rats [4]; rat, oral, any dose): μM. No effect on locomotor
- HR increase (rats [4]; telemetered Wistar rat, oral gavage, highest dose (total Cmax 31.2 μM)): 19%
- Cmax/Dose ([5]; single oral 0.005 mg, geometric mean (% CV)): 0.007 (24)
- AUC/Dose [5, 8]: 0.053
- CL/F [5, 8]: 19.0 L/h
- Cmax/Dose [5, 8]: 0.006
- AUC/Dose [5, 9]: 0.049
- Cmax/Dose [5, 9]: 0.006
- AUC/Dose [5, 10]: 0.061
- Cmax/Dose [5, 10]: 0.006
- t1/2 [5, 10]: 6.7 h
- AUC/Dose [5, 11]: 0.046
- Cmax/Dose [5, 11]: 0.005
- t1/2 [5, 11]: 6.0 h
- AUC/Dose [5, 12]: 0.054
- Cmax/Dose [5, 12]: 0.005
- AUC/Dose [5, 13]: 0.046
- CL/F [5, 13]: 22.0 L/h
- Cmax/Dose [5, 13]: 0.005
- Absorbed (urinary radioactivity and AUC, oral versus iv) ([6]; female rat): 95%
- Absorbed (urinary radioactivity and AUC, oral versus iv) ([6]; male rat): 97%
- Radioactivity recovered in feces ([6]; rat): ~8%
- Radioactivity recovered in urine ([6]; rat): approximately 85%
- iv bolus dose after which one monkey died within minutes (rhesus monkeys; initial dose-finding study): receiving 34.8 mg/kg as iv bolus
- Reinforcing effect (rhesus monkeys; rhesus monkey, iv infusion 0.384, 1.15 and 3.84 mg/kg/infusion): did not display reinforcing properties; also recorded: No reinforcing effect seen at any
- Self-administration level (rhesus monkeys; rhesus monkey, not greater than saline): 0.2-1.7 infusions per session
- AUC ([7]; male, im, 0.048 mg/kg, read-out: AUC (converted)): 14.9 ng·h/mL and 0.0684 µM·h
- AUC ([7]; intramuscular, 0.016 mg/kg, rhesus monkeys, read-out: AUC at NOAEL for behavioral side effects): 0.028 µM·h
